Laboratory results published in EP0112685A1, “Compounds containing beta-lactams” (BEECHAM GROUP PLC, priority 1982, dated 1984).

Test: Blood levels in mice after oral or subcutaneous administration, assayed by biological β-lactamase inhibition-zone technique
Assay type: in vivo
Details: for concentration at 0.5 h: 30 mins after administration; for concentration at 0.75 h: 45 mins after administration; for concentration at 1 h: 60 mins after administration; for concentration at 1.5 h: 90 mins after administration; for concentration at 2 h: 120 mins after administration; for AUC: mice
Protocol: The compound of Example 4 was administered either orally (by gastric lavage) or subcutaneously as a solution to groups of mice. At intervals after administration, 5 mice which had received the compound subcutaneously and 10 mice which had received the compound orally were sacrificed, and blood collected from the axillary region. The blood was assayed for content of compound 4 using a biological β-lactamase inhibition-zone assay technique. The mean values (+ standard deviation - SD) are tabulated below.

[1] = mouse, blood, sc, subcutaneous administration, 10 mg/kg, average for 5 mice
[2] = mouse, blood, oral administration, 20 mg/kg, average for 10 mice

levels in the blood of mice (administered by either an oral or parenteral route, result in words): high and prolonged levels | concentration at 10 min (mouse, blood, sc, subcutaneous administration, 10 mg/kg, 10 mins after administration, average for 5 mice): 22800 ng/mL | concentration at 20 min (mouse, blood, sc, subcutaneous administration, 10 mg/kg, 20 mins after administration, average for 5 mice): 17300 ng/mL | concentration at 0.5 h [1]: 13300 ng/mL | concentration at 0.75 h [1]: 7700 ng/mL | concentration at 1 h [1]: 5200 ng/mL | concentration at 1.5 h [1]: 2700 ng/mL | concentration at 2 h [1]: 1800 ng/mL | concentration at 0.25 h (mouse, blood, oral administration, 20 mg/kg, 15 mins after administration, average for 10 mice): 16600 ng/mL | concentration at 0.5 h [2]: 10500 ng/mL | concentration at 0.75 h [2]: 7940 ng/mL | concentration at 1 h [2]: 7420 ng/mL | concentration at 1.5 h [2]: 3910 ng/mL | concentration at 2 h [2]: 3200 ng/mL | AUC (mouse, sc, subcutaneous administration, 10 mg/kg, blood): 15100 ng·h/mL | AUC (mouse, oral administration, 20 mg/kg, blood): 14300 ng·h/mL
SMILES: O=C(O)C1C(=CCOCCCl)OC2CC(=O)N21 (stereo not shown) [Example 4, Lithium 9-0-(2-chloroethyl)clavulanate]
